This assay deals with T1, streptavidin (Streptomyces avidinii, UniProt P22629).
T1 construct: free analyte in PBS
The assay is described as follows: localized surface plasmon resonance on graphene-oxide optical waveguide, affinity constant from ka/kd. Type of assay: binding. The settings on record: read-out: Kf (converted). An excerpt: localized surface plasmon resonance on graphene-oxide optical waveguide, affinity constant from ka/kd on streptavidin | ka and kd of biotin binding with streptavidin were estimated to be

Where a name gives a salt, the structure may show the parent alone.

Results on one molecule are retold here after PMC9268428, “Determination of the Highly Sensitive Carboxyl-Graphene Oxide-Based Planar Optical Waveguide Localized Surface Plasmon Resonance Biosensor” (Nanomaterials, 2022).

T1 sequence (P22629 25-183): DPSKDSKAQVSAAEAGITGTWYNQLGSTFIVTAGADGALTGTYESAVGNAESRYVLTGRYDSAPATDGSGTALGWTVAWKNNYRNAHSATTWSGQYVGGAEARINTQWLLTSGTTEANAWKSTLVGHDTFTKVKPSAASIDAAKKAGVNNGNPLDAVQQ

In the case of `NCCCNC(=O)CCCC[C@@H]1SC[C@@H]2NC(=O)N[C@@H]21` [N-(+)-biotinyl-3-aminopropylammonium trifluoroacetate], the Kd was 0.137 nM.
